Reference: patent US20260115250A1, “METHODS OF TREATING AGE-RELATED MACULAR DEGENERATION” (Character Biosciences, Inc., priority 2022, published 2026)
pEC50: −log10 of the molar value.

Legend:
[1] = DMPC solubility assay, 0.5 mM DMPC (turbidity reduction); format: biochemical; conditions: for pEC50: 3.16-100 μM peptides, 15 minutes; for DMPC solubilizing activity: FIGS. 2A-2D and 3A-3C
Method: In this example, peptide stocks were diluted to 200 μM in H2O (a 2× solution) and 50 μL of peptide solution was transferred in triplicate into 96-well plates. A one mM solution of 1,2-dimyristoyl-sn-glycero-3-phosphocholine (DMPC) in H2O was prepared, and using a multichannel pipet, 50 μL DMPC solution was rapidly added to the plate. Peptide and lipid solutions were incubated at room temperature for 15 minutes with a final concentration of 100 μM peptides and 0.5 mM DMPC. After 15 minutes, absorbance was read on a plate reader at 405 nm. […] Data are presented as mean+SD over two runs.
In these experiments, DMPC solubility titration curves were generated. Peptide stocks were diluted to 200 μM in H2O (a 2× solution) and serially diluted in H2O over 4 concentrations, then 50 μL of peptide solutions were distributed in triplicate into 96-well plates. A 1 mM solution of 1,2-dimyristoyl-sn-glycero-3-phosphocholine (DMPC) in H2O was prepared, and using a multichannel pipet, 50 μL DMPC solution was rapidly added to the plate. Peptide and lipid solutions were incubated at room temperature for 15 minutes with final concentrations of 3.16-100 μM peptides and 0.5 mM DMPC. After 15 minutes, absorbance was read on a plate reader at 405 nm. […] Data are presented as mean+SD over two runs. Non-linear regression was used to calculate EC50 values.

ABCA1 = target: T1, ABCA1 (Homo sapiens, UniProt O95477); assay: membrane ABCA1 stability testing in ARPE-19 cells treated with mCRP; format: cell-based; conditions: ARPE-19, mCRP, 20 μM peptide, 24 hours
T1 construct: endogenous in cells; host or cells: ARPE-19
Method: ARPE-19 cells were seeded at 100,000 cells per well on 12-well plates and were allowed to grow to confluence. To prepare monomeric CRP (mCRP), recombinant CRP was prepared in a PBS solution containing 8 M Urea and 10 mM EDTA and incubated at 37° C. for 2 hours prior to desalting with a Zeba spin column (7K MW cutoff). mCRP was prepared to a 2× solution of 20 μg/mL. A 2× solution of 40 μM peptides was prepared in serum-free DMEM and serially diluted 1:2 over 4 concentrations. mCRP and peptides were added 1:1 to cells for 24 hours at 37° C. before isolating membrane protein and measuring membrane ABCA1 levels by western blot. Blots were quantified in ImageJ. Signals were further normalized to the LXR agonist treated group to determine percent (%) ABCA1 remaining. Treatment with LXR agonist increased membrane ABCA1 levels in this assay, but following treatment with mCRP, membrane ABCA1 levels were decreased.
FIGS. 35 and 36 show membrane ABCA1 stability testing using ARPE-19 cells. ARPE-19 cells were seeded at 100,000 cells per well on 12-well plates and were allowed to grow to confluence. To prepare monomeric CRP (mCRP), recombinant CRP was prepared in a PBS solution containing 8 M Urea and 10 mM EDTA and incubated at 37° C. for 2 hours prior to desalting with a Zeba spin column (7K MW cutoff). mCRP was prepared to a 2× solution of 20 μg/mL. A 2× solution of 40 μM peptides was prepared in serum-free DMEM. CRP and peptides were added 1:1 to cells for 24 hours at 37° C. before isolating membrane protein and measuring membrane ABCA1 levels by western blot. Blots were quantified in ImageJ. In FIG. 35, Signals were further normalized to the T-087 treated group to determine percent (%) ABCA1 levels compared to peptide T-087 treated cells. In FIG. 36, Signals were further normalized to the peptide T-101 treated group to determine percent (%) ABCA1 levels compared to peptide T-101 treated cells.

HMC3 cells = assay: HMC3 cholesterol efflux; format: cell-based, human; conditions: HMC3, 20 μM peptide, 4 hours
Method: (§1) FIGS. 27A-27B and FIG. 28 illustrate HMC3 cholesterol efflux. Fully confluent 96-well plates of HMC3 cells were treated for 1 hour in serum-free EMEM containing 10 mM methyl-β-cyclodextrin, 100 μM cholesterol, and 25 μM BODIPY cholesterol. Cells were then washed and incubated overnight in serum free EMEM containing 1 μM LXR agonist GW3965, 2 μg/mL ACAT inhibitor, and 0.2% BSA (LXR Agonist treated), or serum-free EMEM containing 2 μg/mL ACAT inhibitor, and 0.2% BSA (Control). Cells were washed and incubated with 20 μM peptides diluted in serum-free Fluorobrite DMEM for 4 hours at 37° C. Media was transferred to a new 96-well plate and fresh serum-free Fluorobrite DMEM was placed on the cells. Media and cellular fluorescence were read on a Promega GloMax at 475 nm excitation, 500-550 emission. Fluorescence values were background corrected from no treatment conditions and percent efflux was calculated by the following equation: % efflux=(Media Fluorescence values)/(Media+Cell Fluorescence values). Data are presented as mean+SD over two runs per peptide.
as §1, with “FIGS. 30A-30J show” for “FIGS. 27A-27B and FIG. 28 illustrate”, “cholesterol efflux titration curves for the indicated peptides.” for “cholesterol efflux.”, “μM” for “μM LXR agonist”, “or serum free” for “or serum-free”, “with 0-100” for “with 20”, “peptides serially” for “peptides”

T1 sequence (O95477 whole entry): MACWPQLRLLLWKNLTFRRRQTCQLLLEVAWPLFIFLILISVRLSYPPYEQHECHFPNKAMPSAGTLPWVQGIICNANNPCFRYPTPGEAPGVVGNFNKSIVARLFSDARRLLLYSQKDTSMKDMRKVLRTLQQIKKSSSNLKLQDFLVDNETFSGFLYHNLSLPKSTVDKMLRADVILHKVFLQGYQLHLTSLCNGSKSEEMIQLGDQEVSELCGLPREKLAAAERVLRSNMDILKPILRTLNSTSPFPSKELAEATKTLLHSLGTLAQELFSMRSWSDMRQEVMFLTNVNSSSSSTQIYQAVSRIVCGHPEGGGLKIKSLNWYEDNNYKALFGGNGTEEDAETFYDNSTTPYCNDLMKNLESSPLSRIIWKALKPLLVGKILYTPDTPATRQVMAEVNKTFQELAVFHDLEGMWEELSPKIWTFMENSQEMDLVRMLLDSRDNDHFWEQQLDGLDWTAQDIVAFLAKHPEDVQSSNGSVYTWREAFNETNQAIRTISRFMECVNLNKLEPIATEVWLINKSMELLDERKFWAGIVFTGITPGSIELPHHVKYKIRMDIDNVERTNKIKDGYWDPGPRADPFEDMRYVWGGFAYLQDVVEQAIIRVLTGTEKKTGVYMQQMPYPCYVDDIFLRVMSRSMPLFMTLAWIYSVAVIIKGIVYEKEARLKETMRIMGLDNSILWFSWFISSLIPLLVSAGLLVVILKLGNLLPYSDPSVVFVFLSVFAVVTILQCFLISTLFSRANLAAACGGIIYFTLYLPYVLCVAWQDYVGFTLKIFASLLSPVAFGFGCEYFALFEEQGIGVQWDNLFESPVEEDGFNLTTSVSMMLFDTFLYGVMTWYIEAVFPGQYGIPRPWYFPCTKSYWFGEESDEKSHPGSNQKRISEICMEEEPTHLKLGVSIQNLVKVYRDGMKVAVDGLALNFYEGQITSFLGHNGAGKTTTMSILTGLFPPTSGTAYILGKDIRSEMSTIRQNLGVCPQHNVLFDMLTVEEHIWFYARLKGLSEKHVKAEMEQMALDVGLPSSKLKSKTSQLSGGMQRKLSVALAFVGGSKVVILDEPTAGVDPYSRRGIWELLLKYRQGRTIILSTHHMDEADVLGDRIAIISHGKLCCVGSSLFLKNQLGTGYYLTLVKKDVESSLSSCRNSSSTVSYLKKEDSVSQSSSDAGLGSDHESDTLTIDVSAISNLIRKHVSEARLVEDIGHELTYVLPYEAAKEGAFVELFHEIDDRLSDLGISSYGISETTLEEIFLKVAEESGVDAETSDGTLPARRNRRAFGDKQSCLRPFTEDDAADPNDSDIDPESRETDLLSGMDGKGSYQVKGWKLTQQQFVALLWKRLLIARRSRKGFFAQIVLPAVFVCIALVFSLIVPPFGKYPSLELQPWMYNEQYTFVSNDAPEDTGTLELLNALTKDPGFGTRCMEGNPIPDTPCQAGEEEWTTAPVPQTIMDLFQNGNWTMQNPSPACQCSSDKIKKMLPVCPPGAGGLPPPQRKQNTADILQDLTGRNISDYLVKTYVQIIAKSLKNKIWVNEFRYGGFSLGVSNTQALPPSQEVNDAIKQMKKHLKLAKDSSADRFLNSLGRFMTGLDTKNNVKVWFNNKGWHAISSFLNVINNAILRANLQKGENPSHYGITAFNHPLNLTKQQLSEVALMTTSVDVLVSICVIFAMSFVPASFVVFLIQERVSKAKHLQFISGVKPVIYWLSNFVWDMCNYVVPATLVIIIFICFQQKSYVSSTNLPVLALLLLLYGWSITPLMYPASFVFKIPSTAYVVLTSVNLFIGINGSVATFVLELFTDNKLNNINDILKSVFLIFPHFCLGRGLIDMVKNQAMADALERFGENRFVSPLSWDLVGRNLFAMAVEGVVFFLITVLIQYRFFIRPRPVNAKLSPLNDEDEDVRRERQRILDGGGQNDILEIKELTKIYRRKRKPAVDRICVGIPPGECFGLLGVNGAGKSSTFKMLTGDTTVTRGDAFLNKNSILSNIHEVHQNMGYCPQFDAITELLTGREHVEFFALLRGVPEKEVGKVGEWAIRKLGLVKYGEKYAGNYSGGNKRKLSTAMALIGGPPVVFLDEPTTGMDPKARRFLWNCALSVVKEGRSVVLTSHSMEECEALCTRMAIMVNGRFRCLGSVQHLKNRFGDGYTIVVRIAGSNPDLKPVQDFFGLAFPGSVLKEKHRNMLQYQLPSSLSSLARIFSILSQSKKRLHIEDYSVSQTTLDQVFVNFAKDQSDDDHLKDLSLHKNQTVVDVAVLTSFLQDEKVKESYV

Substance | membrane ABCA1 levels compared to peptide T-101 treated cells (ABCA1) | cholesterol efflux in the presence of LXR agonist (HMC3 cells) | other results
HLRKLRKRLLRDADDLQDRLAEYQARAKEAFDR [T-063, therapeutic peptide] |  |  | pEC50 [1]: 3.96
HLRKLRKRLLRDGDDLQDRLAEYQARAKEAFDR [T-051, therapeutic peptide] |  |  | pEC50 [1]: 4.81
HLRKLRKRLLRDGDKLQDRLAEYQAGAKEAFDR [T-054, therapeutic peptide] |  |  | pEC50 [1]: 3.91
HLRKLRKRLLRDGDKLSDRLAEYVARAKEAFDR [T-080, therapeutic peptide] |  |  | pEC50 [1]: 3.81
T-005: therapeutic peptide (PLRAELQEGARQKLHELQEKLS) |  |  | DMPC solubilizing activity [1]: did not have significant solubilizing activity
T-006: therapeutic peptide (QDEPPQSPWDRVKDLATVYVDVLKDSGRDYVSQFEGSALGKQLN) |  |  | DMPC solubilizing activity [1]: significant activity
T-010: therapeutic peptide (RDADDLQKRLAVYQAGAREGAE) |  |  | DMPC solubilizing activity [1]: significant activity
T-011: therapeutic peptide (DADDLQKRLAVYQAGAREGAER) |  |  | DMPC solubilizing activity [1]: significant activity
T-014: therapeutic peptide (EQAQQIRLQAEAFQARLKSWFE) |  |  | DMPC solubilizing activity [1]: significant activity
T-015: therapeutic peptide (LVGRQLEEFL) |  |  | DMPC solubilizing activity [1]: did not have significant solubilizing activity
T-017: therapeutic peptide (PLRAELQEGARQKLHELQEKLSPPLRAELQEGARQKLHELQEKLS) |  |  | DMPC solubilizing activity [1]: did not have significant solubilizing activity
T-104: therapeutic peptide (TVRGSADALLEHLTRAWDGFNR) | reduction of membrane ABCA1 levels |  | 
T-121: variant of peptide T-101 (ASGADALESALKELKRFIREWT) | reduction of membrane ABCA1 levels | greater cholesterol efflux | 
T-124: variant of peptide T-101 (RSGPDALESALKELKRFIREWT) | reduction of membrane ABCA1 levels | greater cholesterol efflux | 
T-126: variant of peptide T-101 (RSGADPLESALKELKRFIREWT) | reduction of membrane ABCA1 levels | greater cholesterol efflux | 
T-127: variant of peptide T-101 (RSGADAAESAAKELKRFIREWT) | reduction of membrane ABCA1 levels |  | 
T-128: variant of peptide T-101 (RSGADALASALKELKRFIREWT) | reduction of membrane ABCA1 levels | greater cholesterol efflux | 
T-130: variant of peptide T-101 (RSGADALESPLKELKRFIREWT) | reduction of membrane ABCA1 levels |  | 

Substance | membrane ABCA1 levels compared to peptide T-101 treated cells (ABCA1) | cholesterol efflux in the presence of LXR agonist (HMC3 cells) | other results
T-132: variant of peptide T-101 (RSGADALESALAELKRFIREWT) | reduction of membrane ABCA1 levels |  | 
T-134: variant of peptide T-101 (RSGADALESALKEAKRFIREWT) | reduction of membrane ABCA1 levels | greater cholesterol efflux | 
T-135: variant of peptide T-101 (RSGADALESALKELARFIREWT) | reduction of membrane ABCA1 levels | greater cholesterol efflux | 
T-137: variant of peptide T-101 (RSGADALESALKELKRAIREWT) | reduction of membrane ABCA1 levels | greater cholesterol efflux | 
T-138: variant of peptide T-101 (RSGADALESALKELKRFAREWT) | reduction of membrane ABCA1 levels | greater cholesterol efflux | 
T-140: variant of peptide T-101 (RSGADALESALKELKRFIRAWT) |  | greater cholesterol efflux | 
T-141: variant of peptide T-101 (RSGADALESALKELKRFIREAT) | reduction of membrane ABCA1 levels | greater cholesterol efflux | 
T-142: variant of peptide T-101 (RSGADALESALKELKRFIREWA) |  | greater cholesterol efflux | 
T-143: variant of peptide T-101 (RSGGDALESALKELKRFIREWT) |  | greater cholesterol efflux | 
T-144: variant of peptide T-101 (RSGADGLESALKELKRFIREWT) |  | greater cholesterol efflux | 
T-145: variant of peptide T-101 (RSGADALESGLKELKRFIREWT) | reduction of membrane ABCA1 levels | greater cholesterol efflux | 
T-146: variant of peptide T-101 (AAAADALESALKELKRFIREWT) |  | greater cholesterol efflux | 
T-148: variant of peptide T-101 (RSGADALESAAAALKRFIREWT) | reduction of membrane ABCA1 levels | greater cholesterol efflux | 
T-149: variant of peptide T-101 (RSGADALESALKEAAAFIREWT) | reduction of membrane ABCA1 levels | greater cholesterol efflux | 
T-150: variant of peptide T-101 (RSGADALESALKELKRAAAEWT) | reduction of membrane ABCA1 levels | greater cholesterol efflux | 
T-151: variant of peptide T-101 (RSGADALESALKELKRFIRAAA) |  | greater cholesterol efflux | 
T-173: variant of peptide T-087 (AAAERFRALFKELADYFR) |  |  | membrane ABCA1 levels compared to peptide T-087 treated cells (ABCA1): reduction of membrane ABCA1 levels
T-177: variant of peptide T-087 (DAWERFRALFKEAAAYFR) |  |  | membrane ABCA1 levels compared to peptide T-087 treated cells (ABCA1): reduction of membrane ABCA1 levels
